Patent US20200157092A1, “[1,2,4]-TRIAZOLO [1,5-A]-PYRIMIDINYL DERIVATIVES SUBSTITUTED WITH PIPERIDINE, […] […] OGA INHIBITORS” (priority 2017, published 2020)
Where two headings read alike, the source gives them in different places.

Columns and labels:
[1] = target: T1, recombinant human Meningioma Expressed Antigen 5 (MGEA5), also referred to as O-GlcNAcase (OGA) (Homo sapiens, UniProt O60502); assay: OGA biochemical assay: inhibition of FM-GlcNAc hydrolysis, fluorescence; protocol A (10 nM OGA, 1 h) or protocol B (2 nM OGA, 6 h); details: for IC50: read-out: Enzymatic hOGA, pIC50 (converted)
T1 construct: Full length OGA enzyme was purchased at OriGene (cat # TP322411); purchased OriGene TP322411
T1 sequence (O60502 1-916): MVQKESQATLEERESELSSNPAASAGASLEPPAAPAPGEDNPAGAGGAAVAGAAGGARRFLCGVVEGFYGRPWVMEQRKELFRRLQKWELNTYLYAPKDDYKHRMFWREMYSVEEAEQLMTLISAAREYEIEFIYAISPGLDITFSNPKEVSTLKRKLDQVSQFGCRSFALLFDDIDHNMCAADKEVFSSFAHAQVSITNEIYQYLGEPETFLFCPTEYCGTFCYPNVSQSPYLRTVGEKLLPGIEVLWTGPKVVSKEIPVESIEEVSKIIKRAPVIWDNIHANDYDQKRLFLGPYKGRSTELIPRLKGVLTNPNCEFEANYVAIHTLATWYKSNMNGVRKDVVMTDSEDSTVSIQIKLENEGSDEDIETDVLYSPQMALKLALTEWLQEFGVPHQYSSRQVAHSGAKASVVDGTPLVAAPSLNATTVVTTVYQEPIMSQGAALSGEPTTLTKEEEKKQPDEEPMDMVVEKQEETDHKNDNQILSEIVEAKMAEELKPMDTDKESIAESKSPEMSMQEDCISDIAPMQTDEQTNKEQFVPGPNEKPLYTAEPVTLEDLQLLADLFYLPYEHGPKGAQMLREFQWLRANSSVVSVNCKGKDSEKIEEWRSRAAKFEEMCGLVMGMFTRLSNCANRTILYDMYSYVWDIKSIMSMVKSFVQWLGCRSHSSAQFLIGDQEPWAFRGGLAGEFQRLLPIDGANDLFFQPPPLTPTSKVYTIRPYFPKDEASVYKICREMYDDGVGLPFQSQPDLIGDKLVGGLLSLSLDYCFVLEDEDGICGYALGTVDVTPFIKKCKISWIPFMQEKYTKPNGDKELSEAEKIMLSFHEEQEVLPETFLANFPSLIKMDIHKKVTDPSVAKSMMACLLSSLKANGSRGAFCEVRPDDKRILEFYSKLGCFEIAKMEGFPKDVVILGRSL
Protocol: The hydrolysis FM-GlcNAc (Marker Gene technologies, cat # M1485) results in the formation of ß-D-N-glucosamineacetate and fluorescein. The fluorescence of the latter can be measured at excitation wavelength 485 nm and emission wavelength 538 nm. An increase in enzyme activity results in an increase in fluorescence signal. Full length OGA enzyme was purchased at OriGene (cat # TP322411). The enzyme was stored in 25 mM Tris.HCl, pH 7.3, 100 mM glycine, 10% glycerol at −20° C. […] The assay was performed in 200 mM Citrate/phosphate buffer supplemented with 0.005% Tween-20. 35.6 g Na2HPO4 2 H2O (Sigma, # C0759) were dissolved in 1 L water to obtain a 200 mM solution. […] The buffer to stop the reaction consists of a 500 mM Carbonate buffer, pH 11.0. […] OGA was used at a 10 nM (protocol A) or 2 nM (protocol B) concentration and FM-GlcNAc at a 100 uM final concentration. Dilutions were prepared in assay buffer.
Plates were pre-incubated for 60 min at room temperature and then 2 μl FM-GlcNAc substrate mix added. […] Plates were briefly centrifuged for 1 min at 1000 rpm and incubate at room temperature for 1 h (10 nM OGA, protocol A) or 6 h (2 nM OGA, protocol B). To stop the reaction 5 μl STOP buffer were added and plates centrifuge again 1 min at 1000 rpm. Fluorescence was quantified in the Thermo Scientific Fluoroskan Ascent or the PerkinElmer EnVision with excitation wavelength 485 nm and emission wavelength 538 nm.
For analysis a best-fit curve is fitted by a minimum sum of squares method. From this an IC50 value and Hill coefficient was obtained. High control (no inhibitor) and low control (saturating concentrations of standard inhibitor) were used to define the minimum and maximum values.

[2] = target: T2, OGA (Homo sapiens, UniProt O60502); assay: OGA cellular assay: immunocytochemical detection of O-GlcNAcylated proteins in HEK293 cells inducible for P301L mutant human Tau; format: cell-based; details: for Emax: HEK293, read-out: Cellular Emax (%)
T2 construct: HEK293 cells inducible for P301L mutant human Tau (isoform 2N4R) were established at Janssen; endogenous in cells; host or cells: HEK293 cells inducible for P301L mutant human Tau (2N4R)
T2 sequence (O60502 1-916): T1 sequence (O60502 1-916)
Description: HEK293 cells inducible for P301L mutant human Tau (isoform 2N4R) were established at Janssen. Thiamet-G was used for both plate validation (high control) and as reference compound (reference EC50 assay validation). […] Inhibition of OGA will result in an increase of O-GlcNAcylated protein levels resulting in an increased signal in the experiment. […] ICC pictures are imaged with a Perkin Elmer Opera Phenix plate microscope and quantified with the provided software Perkin Elmer Harmony 4.1.
Cells were propagated in DMEM high Glucose (Sigma, # D5796) following standard procedures. […] At the day of compound test medium from assay plates was removed and replenished with 90 μl of fresh Assay Medium. 10 μl of compounds at a 10 fold final concentration were added to the wells. Plates were centrifuged shortly before incubation in the cell incubator for 6 hours. DMSO concentration was set to 0.2%. Medium is discarded by applying vacuum. For staining of cells medium was removed and cells washed once with 100 μl D-PBS (Sigma, # D8537). From next step onwards unless other stated assay volume was always 50 μl and incubation was performed without agitation and at room temperature. […] Before analysis samples were washed 2 times manually for 5 minutes in ICC base buffer.
Imaging is performed using Perkin Elmer Phenix Opera using a water 20× objective and recording 9 fields per well. Intensity readout at 488 nm is used as a measure of O-GlcNAcylation level of total proteins in wells. To assess potential toxicity of compounds nuclei were counted using the Hoechst staining. IC50-values are calculated using parametric non-linear regression model fitting. As a maximum inhibition Thiamet G at a 200 uM concentration is present on each plate. In addition, a concentration response of Thiamet G is calculated on each plate.

[3] = Enzymatic protocol B (2 nM OGA, 6 h)
[4] = Enzymatic protocol A (10 nM OGA, 1 h)

| Compound | melting point | Emax [1, 3] | IC50 [1, 3] | EC50 [2] | Emax [2] | Emax [1, 4] | IC50 [1, 4] |
| --- | --- | --- | --- | --- | --- | --- | --- |
| CC(=O)Nc1ncc(CN2CC[C@H](Cc3cncc4nccn34)C2)s1 [Product 108] | 202.48 °C | 101% | 4.9 nM | 97.7 nM | 92.7% | – | – |
| CC(=O)Nc1ncc(S(=O)(=O)N2CCO[C@@H](c3ccnc4ncnn34)C2)s1 [Product 31] | 263.16 °C | – | – | > 10000 nM | 11.1% | 103% | 15.8 nM |
| CC(=O)Nc1ncc(S(=O)(=O)N2CCNC(c3cc(C(F)F)nc4ncnn34)C2)s1 (centres unmarked) [Product 41] | 227.97 °C | – | – | > 10000 nM | 10.5% | 102% | 6.17 nM |
| CC(=O)Nc1ncc(S(=O)(=O)N2CCOC(c3cc(C(F)F)nc4ncnn34)C2)s1 (centres unmarked) [Product 33] | 264.85 °C | – | – | > 10000 nM | 15.7% | 101% | 6.46 nM |
| CC(=O)Nc1ncc(CN2CCCC(c3cc4cc[nH]c4nc3C)C2)s1 (racemic) [Product 74] | 276.23 °C | – | – | 13.5 nM | 102% | 101% | 6.31 nM |
| CC(=O)Nc1ncc(CN2CCC[C@H](c3ccnc4ncnn34)C2)s1 [Product 9] | 234.6 °C | – | – | 38.9 nM | 109% | 101% | 11.7 nM |
| CC(=O)Nc1ncc(CN2CCCC(Nc3cc(C)nc4ncnn34)C2)s1 (centres unmarked) [Product 51] | 249.94 °C | 98.5% | 115 nM | – | – | – | – |
| CC(=O)Nc1ncc(S(=O)(=O)N2CCO[C@H](c3ccnc4ncnn34)C2)s1 [Product 32] | 260.51 °C | – | – | > 10000 nM | 21.8% | 102% | 14.5 nM |
| CC(=O)Nc1ncc(CN2CCC(Cc3cnc4cc[nH]c4c3)C2)s1 (centres unmarked) [Product 68] | 190.79 °C | 101% | 5.37 nM | 41.7 nM | 91.2% | – | – |
| CC(=O)Nc1ncc(CN2CCOC(c3cc(C)nc4ncnn34)C2)s1 (centres unmarked) [Product 35] | 264.26 °C | 86.7% | 1480 nM | – | – | 98.3% | 1580 nM |
| CC(=O)Nc1ncc(CN2CCCC(c3cc(C)nc4ncnn34)C2)s1 (racemic) [Product 11] | 246.95 °C | 100% | 6.17 nM | 27.5 nM | 113% | – | – |
| CC(=O)Nc1ncc(S(=O)(=O)N2CCCC(C)(c3cc(C(F)F)nc4ncnn34)C2)s1 (centres unmarked) [Product 60] | 238.12 °C | – | – | – | – | 98.7% | 1860 nM |
| CC(=O)Nc1ncc(CN2CCOC(c3cc(C(F)(F)F)nc4ncnn34)C2)s1 (centres unmarked) [Product 37] | 242.64 °C | 79.6% | 2690 nM | – | – | – | – |
| CC(=O)Nc1ncc(S(=O)(=O)N2CCCC(c3cc(C(F)F)nc4ncnn34)C2)s1 (racemic) [Product 6] | 266.14 °C | – | – | > 10000 nM | 39.4% | 101% | 9.33 nM |
| CC(=O)Nc1ncc(CN2CCC[C@@H](c3cc(C(F)F)n4ncnc4n3)C2)s1 [Product 25] | 182.53 °C | – | – | 457 nM | 113% | 103% | 13.5 nM |
| CC(=O)Nc1ncc(S(=O)(=O)N2CCOC(c3cc(C(F)(F)F)nc4ncnn34)C2)s1 (centres unmarked) [Product 27] | 255.12 °C | – | – | > 10000 nM | 19.5% | 100% | 17 nM |
| CC(=O)Nc1ncc(S(=O)(=O)N2CCOC(c3cc(C)nc4ncnn34)C2)s1 (racemic) [Product 28] | 290.78 °C | 101% | 8.51 nM | > 10000 nM | 22% | 103% | 9.12 nM |
| CC(=O)Nc1ncc(CN2CCCC(c3cc(C(F)F)n4ccnc4n3)C2)s1 (racemic) [Product 24] | 232.44 °C | – | – | 479 nM | 109% | 102% | 31.6 nM |
| CC(=O)Nc1ncc(CN2CCC[C@@H](c3ccnc4ncnn34)C2)s1 [Product 65] | 236.16 °C | 99.2% | 123 nM | – | – | – | – |
| CC(=O)Nc1ncc(CN2CC[C@H](Cc3nccn4c(C)cnc34)C2)s1 [Product 104] | 189.54 °C | 100% | 1.48 nM | 61.7 nM | 91.5% | – | – |
| CC(=O)Nc1ncc(CN2CCOC(c3ccnc4ncnn34)C2)s1 (centres unmarked) [Product 36] | 251.21 °C | 93.6% | 741 nM | – | – | – | – |
| CC(=O)Nc1ncc(CN2CCCC(c3cc(C(F)F)nc4nccn34)C2)s1 (centres unmarked) [Product 14] | 226.06 °C | – | – | 70.8 nM | 108% | 102% | 8.71 nM |
| CC(=O)Nc1ncc(S(=O)(=O)N2CCC3(CC3)C(c3cc(C(F)F)nc4ncnn34)C2)s1 (centres unmarked) [Product 63] | 266.56 °C | – | – | – | – | 93.8% | 692 nM |
| CC(=O)Nc1ncc(CN2CCCC(c3cc(C(F)F)nc4ncnn34)C2)s1 (racemic) [Product 13] | 186.01 °C | – | – | 35.5 nM | 130% | 101% | 8.51 nM |
| CC(=O)Nc1ncc(CN2CCOC(c3cc(C(F)F)nc4ncnn34)C2)s1 (centres unmarked) [Product 34] | 260.21 °C | – | – | – | – | 97.4% | 1580 nM |
